Source: patent US7547444B1, “Methods for controlling fungi and bacteria” (priority 2003, dated 2009)

Columns and labels:
Cryptococcus neoformans = conditions: in vitro, 24 hours at 35 degrees C.
Streptococcus algalactia = conditions: in vitro, 24 hours at 35° C.
E. coli = conditions: in vitro, 24 hours at 35° C.
Fusarium solani = conditions: in vitro, 24 hours at 35 degrees C.
Streptococcus pyogenes = conditions: in vitro, 24 hours at 35° C.
[1] = system: Trichophyton mentagrophyt
Staphylococcus aureus = conditions: in vitro, 24 hours at 35° C.
Streptococcus faecalis = conditions: in vitro, 24 hours at 35° C.
Bordella bronchiseptica = conditions: in vitro, 24 hours at 35° C.
Aspergillus flavus = conditions: in vitro, 24 hours at 35 degrees C.
Vibrio cholerae = conditions: in vitro, 24 hours at 35° C.
Pasturella multocida = conditions: in vitro, 24 hours at 35° C.
Candida albicans = conditions: in vitro, 24 hours at 35 degrees C.
Candida tropicalis = conditions: in vitro, 24 hours at 35 degrees C.
Aspergillus fumigatus = conditions: in vitro, 24 hours at 35 degrees C.
Pseudomonas aerugenosa = conditions: in vitro, 24 hours at 35° C.
Fusarium culmorum = Fusarium culmorum (Wheat Head); 18° C. for 7 days
Experimental: (§1) A stock solution of the compound was prepared in DMSO at a concentration of 10,000 ppm a.i. Further dilutions were prepared with water. The test was conducted at the following concentrations: 125, 31, 8, 21, 0.5 and 0.125 ppm a.i. Spore suspensions of the fungi were prepared. The test was conducted in microtiter plates and for each fungus and each concentration, 3 wells were prepared. Incubation of the inoculated plates was carried out at 18° C. for 7 days. After this time, the optical density of the mycelium developed in each well was measured at 405 nm.

Pyricularia oryzae = Pyricularia oryzae (Rice); 18° C. for 7 days
[2] = system: roundworms, threadworms, and whipworms; conditions: reported; cited from earlier work
Pyrenophora teres = experiment: Plant relevant mold panel, microtiter plate growth inhibition (OD 405 nm), IC 90; type: cell-based; conditions: Pyrenophora teres (Barley); 18° C. for 7 days
Rhizoctonia solani = experiment: as above; type: cell-based; conditions: Rhizoctonia solani (Rice Sheath); 18° C. for 7 days
Phytophthora infestans = Phytophthora infestans (Tomato); 18° C. for 7 days
[3] = system: Colletotrichum lagenarium; experiment: Plant relevant mold panel, microtiter plate growth inhibition (OD 405 nm), IC 90; type: cell-based; conditions: Colletotrichum lagenarium (Mellons); 18° C. for 7 days
Cochliobolus mijabeanus = Cochliobolus mijabeanus (Corn); 18° C. for 7 days
Experimental: as §1

Botrytis cinerea = experiment: Plant relevant mold panel, microtiter plate growth inhibition (OD 405 nm), IC 90; type: cell-based; conditions: Botrytis cinerea (Vegetable); 18° C. for 7 days
Septonia tritici = experiment: as above; type: cell-based; conditions: Septonia tritici (Wheat Leaf); 18° C. for 7 days
Alternaria solani = Alternaria solani (Potato); 18° C. for 7 days
Experimental: as §1

Stilbazium Chloride [formula I]
MIC (Cryptococcus neoformans): <0.4 µg/mL | MIC (Rhizopus arrihizus): 6.25 µg/mL | MIC (Streptococcus algalactia): 1.0 µg/mL | MIC (Microsporidium canis): 1.6 µg/mL | MIC (Trichophyton rubrum): 1.6 µg/mL | MIC (E. coli): >100 µg/mL | MIC (Fusarium solani): <0.4 µg/mL | MIC (Streptococcus pyogenes): 1.0 µg/mL | MIC [1]: 1.6 µg/mL | MIC (Epidermophyton floccsum): 1.6 µg/mL | MIC (Saccharomyces cervisciae): <0.4 µg/mL | MIC (Staphylococcus aureus): 0.3 µg/mL | MIC (Streptococcus faecalis): 1.0 µg/mL | MIC (Bordella bronchiseptica): 1.0 µg/mL | MIC (Aspergillus flavus): 6.25 µg/mL | MIC (Vibrio cholerae): 10.0 µg/mL | MIC (Microsporidium gypseum): 1.6 µg/mL | MIC (Pasturella multocida): 3.0 µg/mL | MIC (Candida albicans): <0.006 µg/mL | MIC (Trichophyton eguinium): 1.6 µg/mL | MIC (Candida tropicalis): <0.4 µg/mL | MIC (Aspergillus fumigatus): <0.006 µg/mL | MIC (Pseudomonas aerugenosa): >100 µg/mL

CC[n+]1c(/C=C/c2ccc(N3CCCC3)cc2)cccc1/C=C/c1ccc(N2CCCC2)cc1.[I-] [Stilbazium iodide]
IC90 (Fusarium culmorum): >125 ppm a.i. | IC90 (Pyricularia oryzae): 8 ppm a.i. | anthelmintic effectiveness [2]: effective | IC90 (Pyrenophora teres): 31 ppm a.i. | IC90 (Rhizoctonia solani): 2 ppm a.i. | IC90 (Phytophthora infestans): 2 ppm a.i. | IC90 [3]: 31 ppm a.i. | IC90 (Cochliobolus mijabeanus): >125 ppm a.i. | IC90 (Botrytis cinerea): 0.5 ppm a.i. | IC90 (Septonia tritici): 2 ppm a.i. | IC90 (Alternaria solani): >125 ppm a.i.
